Data on three compounds can be found in patent publication US8217004B2, “Sequestering agent for micronutrient fertilisers” (priority 2005, dated 2012).

The conditions of data set [1]: published value; cited from earlier work.
Data set [2] deals with Canola. In words: Pot experiment: availability of Zn fertiliser to Canola grown on alkaline and calcareous soils. The format is in vivo, Canola (variety Pinnacle). As to conditions: calcareous grey sandy loam (Streaky Bay) and Sodosol (Birchip); 21 days; FIG. 2; LSD=1.72; p<0.01.
Description: Topsoils from each location were collected, oven dried and passed through a 2 mm sieve. The experimental fertilisers were mixed with 20g of soil, which was banded between 100 g of the unfertilised bulk soil. Total nutrient application equated to (μg/g soil) P 60, N 27, applied as TGMAP, and Zn 0.2 as ZnSO4.7H2O. Chelate rates were based on the concentrations required to complex between 75 and 100% of the Zn in the fertiliser solution. Rates varied depending on the equilibrium constant (logK) and the stoichiometry of the Zn-ligand complexes. […] Each treatment was replicated four times.
Two pre-germinated Canola seeds (variety Pinnacle) were transferred to each pot. The pots were watered to θg=0.5 with deionised water every second day and evaporation was reduced with polyethylene beads, which were spread over the exposed surface of each pot. The plants were grown for 21 days in a controlled environment growth chamber (10 h dark at 15° C., 14 h light at 20° C., 41% humidity) before the shoots were harvested, rinsed, dried, weighed and then digested in concentrated HNO3. Plant digests were analysed for ^65Zn by gamma spectroscopy and for total nutrient contents by ICP-OES.
Data for shoot dry weight, shoot nutrient concentrations and Zn fertiliser uptake were analysed by analysis of variance (ANOVA). Significance between means was determined using the Least Significant Difference (LSD) test.
Data set [3] can be described thus: n-Octanol/water partition coefficients (Kow) of metal-ligand complexes, shake-flask method. The format is physicochemical. The text has this: n-Octanol/water partition coefficients (Kow) are commonly used to determine whether molecules can partition into hydrophobic (lipid-soluble) phases. Polar molecules, ie metals, generally partition in the water phase. Neutral, lipid soluble organic molecules may partition within the octanol phase according to their Kow. Most conventional chelate complexes (ie ZnEDTA^2−) partition within the water phase. […] The aim of this experiment was to determine whether Zn-Rhamnolipid complexes would partition within the n-octanol phase. Kow's were measured with varying Rhamnolipid concentrations. […] Final Rhamnolipid concentrations were (mM) 0, 0.1, 0.24, 0.5, 1, 1.5, 2, 2.5. Two millilitres of n-Octanol was added to the solutions before they were shaken end-over-end for 24 hours. Following shaking, 3 ml of solution was removed from the water phase and digested in concentrated HNO3 before analysis for total Zn by ICP-OES. The partition coefficient was calculated according to the equation above.

For data set [4], the system named is Canola. In words: Canola dry matter response to foliar applied Zn (shoot immersion). The format is in vivo, Canola (var. Pinnacle). As to conditions: Zn deficient Canola, shoots immersed five seconds; compared with ZnSO4 or ZnEDTA; FIG. 3; P<0.05, LSD=0.1496. The text has this:
Dry matter response in Zn deficient Canola was used as a measure of fertiliser effectiveness because it considers metabolically available Zn, rather than total Zn uptake. Pre-germinated Canola seedlings (var. […] After 13 days, whole shoots were immersed in ZnSO4.7H2O solutions for five seconds. […] Rhamnolipid rates were high enough to ensure a Zn Kow of at least 50 at the highest Zn application rate. […] Wetting agent was not required in the Rhamnolipid solutions because of the surfactant properties of the ligand. […] After the three-week growth period, plant roots and shoots were harvested, dried and weighed for dry matter production.

On to `O=C([O-])CN(CCN(CC(=O)O)CC(=O)O)CC(=O)[O-].[Zn+2]` [ZnEDTA], for which the “logK of Zn complex” value in data set [1] is given as 16.5.

As to `O=C(O)CN(CCN(CC(=O)O)CC(=O)O)CC(=O)O` [EDTA, reference compound], in the data set on Canola [2], the “total Zn uptake by canola (roots absorbed and translocated into shoots)” value is listed as “ineffective”.

For rhamnolipid, in data set [3] (Zn, Mn, Cu, shake-flask, 24 hours, FIG. 1), the “partitioning of metal-ligand complex into the n-octanol phase (Kow)” value was “dramatically facilitates the transfer of the metal ion from the aqueous phase into the octanol phase”. Moreover, the “Zn Kow” value in data set [3] (at the Rhamnolipid rates used for foliar test, at the highest Zn application rate) is “at least 50”. Besides, the “total Zn uptake by canola (roots absorbed and translocated into shoots)” value in the data set with Canola [2] is “significantly increased total Zn uptake”. In addition, the “plant foliar dry matter response to applied Zn” value in the data set with Canola [4] is “significantly increased dry matter response to Zn”.
